Experimental data: paper PMC7617285, “Dehydrogenase versus oxidase function: the interplay between substrate binding and flavin microenvironment” (ACS catalysis, 2025)
Values belong to the molecule of their own block, whether it stands above or below them.

Columns and labels:
[1] = biological target: T1, VAD (vanillyl-alcohol dehydrogenase from Marinicaulis flavus) (Hyphococcus luteus, UniProt A0A2S7K3M2, P151L); experiment: X-ray structure of soaked crystal; type: binding; conditions: 1 mM eugenol soak, 2 min; active site, flavin si side
T1 construct: gene CW354_13745; SUMO tag cleaved for crystals; covalent FAD on H387; dimer

[2] = biological target: T2, nsVAO (vanillyl-alcohol oxidase from Novosphingobium sp.) (Novosphingobium sp., UniProt A0A3N9RU39); experiment: X-ray structure; type: binding; conditions: non-covalently bound FAD
T2 construct: gene EH199_11270; SUMO tag cleaved for crystals; non-covalent FAD
T2 sequence (A0A3N9RU39 1-543): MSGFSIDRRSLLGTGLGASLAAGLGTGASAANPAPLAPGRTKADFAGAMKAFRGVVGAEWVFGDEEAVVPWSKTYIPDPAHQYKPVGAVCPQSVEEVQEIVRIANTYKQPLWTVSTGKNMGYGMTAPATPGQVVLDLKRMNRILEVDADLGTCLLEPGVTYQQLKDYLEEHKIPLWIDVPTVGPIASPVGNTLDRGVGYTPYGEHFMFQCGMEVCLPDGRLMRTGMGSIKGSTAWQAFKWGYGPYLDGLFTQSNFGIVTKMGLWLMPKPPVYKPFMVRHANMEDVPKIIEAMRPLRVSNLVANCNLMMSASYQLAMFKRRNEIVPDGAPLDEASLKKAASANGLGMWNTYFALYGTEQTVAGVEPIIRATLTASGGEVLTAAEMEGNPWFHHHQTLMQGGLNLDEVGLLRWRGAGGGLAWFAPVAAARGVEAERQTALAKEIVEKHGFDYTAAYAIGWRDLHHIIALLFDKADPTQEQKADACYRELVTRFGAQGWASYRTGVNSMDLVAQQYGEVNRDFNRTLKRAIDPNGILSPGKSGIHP

[3] = biological target: T3, VAD (vanillyl-alcohol dehydrogenase from Marinicaulis flavus) (Hyphococcus luteus, UniProt A0A2S7K3M2); experiment: X-ray structure; type: binding; conditions: covalent (H387)
T3 construct: gene CW354_13745; SUMO tag cleaved for crystals; covalent FAD on H387; dimer
T3 sequence (A0A2S7K3M2 1-521): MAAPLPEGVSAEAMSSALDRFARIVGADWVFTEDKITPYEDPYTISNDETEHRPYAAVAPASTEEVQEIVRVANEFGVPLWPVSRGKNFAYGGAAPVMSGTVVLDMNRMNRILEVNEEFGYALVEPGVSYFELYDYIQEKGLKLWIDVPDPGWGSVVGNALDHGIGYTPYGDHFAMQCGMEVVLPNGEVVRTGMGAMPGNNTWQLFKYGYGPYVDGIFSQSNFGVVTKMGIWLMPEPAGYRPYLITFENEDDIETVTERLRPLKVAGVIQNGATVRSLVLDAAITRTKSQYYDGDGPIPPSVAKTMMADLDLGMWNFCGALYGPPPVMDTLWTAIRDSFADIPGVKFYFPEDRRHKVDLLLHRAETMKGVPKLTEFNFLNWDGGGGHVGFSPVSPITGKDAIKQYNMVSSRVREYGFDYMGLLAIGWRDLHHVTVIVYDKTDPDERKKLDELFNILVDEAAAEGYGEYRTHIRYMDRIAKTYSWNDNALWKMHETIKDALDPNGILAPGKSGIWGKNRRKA

[4] = biological target: T2, nsVAO (vanillyl-alcohol oxidase from Novosphingobium sp.); experiment: X-ray structure of soaked crystal; type: binding; conditions: […] vanillyl alcohol soak, […] min; active site
[5] = biological target: T1, VAD (vanillyl-alcohol dehydrogenase from Marinicaulis flavus); experiment: anaerobic stopped-flow reductive half-reaction; type: biochemical; conditions: 25 °C, 50 mM potassium phosphate pH 7.5, 150 mM NaCl, oxidized enzyme
Description: (§1) anaerobic stopped-flow reductive half-reaction on VAD (vanillyl-alcohol dehydrogenase from Marinicaulis flavus)

[6] = biological target: T3, VAD (vanillyl-alcohol dehydrogenase from Marinicaulis flavus); experiment: anaerobic stopped-flow reductive half-reaction; type: biochemical; conditions: 25 °C, 50 mM potassium phosphate pH 7.5, 150 mM NaCl, oxidized enzyme
Description: as §1

T1 sequence (A0A2S7K3M2 entry or part of it P151L): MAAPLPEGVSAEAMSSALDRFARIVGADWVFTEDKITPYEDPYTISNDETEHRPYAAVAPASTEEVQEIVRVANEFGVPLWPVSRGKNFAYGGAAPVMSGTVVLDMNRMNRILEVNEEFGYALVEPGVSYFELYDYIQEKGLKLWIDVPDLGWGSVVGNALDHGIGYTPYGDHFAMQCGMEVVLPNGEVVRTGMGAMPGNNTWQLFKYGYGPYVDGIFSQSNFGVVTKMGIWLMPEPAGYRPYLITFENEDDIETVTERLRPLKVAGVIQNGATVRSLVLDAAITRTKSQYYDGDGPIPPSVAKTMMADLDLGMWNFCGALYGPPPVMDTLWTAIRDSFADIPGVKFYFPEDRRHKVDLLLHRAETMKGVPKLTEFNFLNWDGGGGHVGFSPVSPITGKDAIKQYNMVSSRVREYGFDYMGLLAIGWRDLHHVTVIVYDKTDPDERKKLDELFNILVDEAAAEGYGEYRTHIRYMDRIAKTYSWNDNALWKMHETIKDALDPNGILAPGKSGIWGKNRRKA

SMILES: C=CCc1ccc(O)c(OC)c1 [Eugenol]
X-ray structure of soaked crystal [1]: P151L VAD-eugenol, wild type nsVAO-vanillyl alcohol and T181D nsVAO-vanillin complexes were prepared by soaking crystals

SMILES: Cc1cc2nc3c(=O)[nH]c(=O)nc-3n(C[C@H](O)[C@H](O)[C@H](O)COP(=O)(O)OP(=O)(O)OC[C@H]3O[C@@H](n4cnc5c(N)ncnc54)[C@H](O)[C@@H]3O)c2cc1C [FAD]
X-ray structure [2]: Its crystal structure confirms that FAD is non-covalently bound | X-ray structure [3]: FAD carbons are in yellow, wild-type carbons in orange

Kd [5]: 1060 ± 80 µM | Kd [6]: 24.2 ± 3.3 µM
SMILES: COc1cc(CO)ccc1O [Vanillyl alcohol]
X-ray structure of soaked crystal [4]: Vanillyl alcohol bound to wild type nsVAO is shown with blue carbons.
